The record followed here is PubChem BioAssay AID220 (DTP/NCI, 2004).

For the test, the system named is CD8F1 mice, subcutaneous mammary adenocarcinoma, T/C%. Nature of the test: NCI In Vivo Anticancer Drug Screen. Data for tumor model Mammary Adenocarcinoma CD8F1 (subcutaneous) in CD8F1. The settings on record: higher = larger tumour. Put shortly: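 Tumor-bearing mice, transplantable model; readout survival or tumor size; value = treated (T) / vehicle control (C).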

[1] abbreviates: endpoint: mean tumor weight, dose: 0.5 mg/kg/injection, schedule: Q07DX006 (ip), vehicle: saline.

Several values for one entry are separate records, joined by “and”; a condition that tells them apart may be missing. Equal values may be shown once. Records with an inconclusive call do not appear.

Regarding `OCC1(CO)COC2(CCCCC2)N1`, the T/C by setting is: (endpoint: median tumor weight (est.), dose: 12.5 mg/kg/injection, schedule: Q07DX005 (ip), vehicle: saline) 78 % of control; (endpoint: median tumor weight (est.), dose: 25.0 mg/kg/injection, schedule: Q07DX005 (ip), vehicle: saline) 64 % of control; (endpoint: median tumor weight (est.), dose: 50.0 mg/kg/injection, schedule: Q07DX005 (ip), vehicle: saline) 112 % of control; (endpoint: median tumor weight (est.), dose: 100.0 mg/kg/injection, schedule: Q07DX005 (ip), vehicle: saline) 105 % of control; (endpoint: median tumor weight (est.), dose: 200.0 mg/kg/injection, schedule: Q07DX005 (ip), vehicle: saline) 81 % of control; (endpoint: median tumor weight (est.), dose: 400.0 mg/kg/injection, schedule: Q07DX005 (ip), vehicle: saline) 93 % of control.
`COc1cccc2c1C(=O)c1c(O)c3c(c(O)c1C2=O)C[C@@](O)(C(=O)COC(=O)c1cccnc1)C[C@@H]3OC1CC(N)C(O)C(C)O1` (some centres not stated): the T/C by setting is: under setting [1], 114 % of control; (endpoint: mean tumor weight, dose: 1.0 mg/kg/injection, schedule: Q07DX006 (ip), vehicle: saline) 53 % of control; (endpoint: mean tumor weight, dose: 2.0 mg/kg/injection, schedule: Q07DX006 (ip), vehicle: saline) 25 % of control; (endpoint: median tumor weight (est.), dose: 0.5 mg/kg/injection, schedule: Q07DX005 (ip), vehicle: saline) 121 % of control; (endpoint: median tumor weight (est.), dose: 1.0 mg/kg/injection, schedule: Q07DX005 (ip), vehicle: saline) 92 % of control; (endpoint: median tumor weight (est.), dose: 2.0 mg/kg/injection, schedule: Q07DX005 (ip), vehicle: saline) 72 % of control and 75 % of control. For the same compound, the T/C (endpoint: median tumor weight (est.), dose: 4.0 mg/kg/injection, schedule: Q07DX005 (ip), vehicle: saline) was 90 % of control.
As to `CCCN1COC(OCC)C(C)(C)C1` (configuration not stated), the T/C was 102 % of control (endpoint: median tumor weight change, dose: 50.0 mg/kg/injection, schedule: Q01DX001 (ip), vehicle: saline with Tween-80); 85 % of control (endpoint: median tumor weight change, dose: 100.0 mg/kg/injection, schedule: Q01DX001 (ip), vehicle: saline with Tween-80); 66 % of control (endpoint: median tumor weight change, dose: 125.0 mg/kg/injection, schedule: Q01DX001 (ip), vehicle: saline with Tween-80); 84 % of control (endpoint: median tumor weight change, dose: 200.0 mg/kg/injection, schedule: Q01DX001 (ip), vehicle: saline with Tween-80); 47 % of control (endpoint: median tumor weight change, dose: 250.0 mg/kg/injection, schedule: Q01DX001 (ip), vehicle: saline with Tween-80); 47 % of control (endpoint: median tumor weight change, dose: 500.0 mg/kg/injection, schedule: Q01DX001 (ip), vehicle: saline with Tween-80).
Turning to `COc1cccc2c1C(=O)c1c(O)c3c(c(O)c1C2=O)C[C@@](O)(C(=O)CO)C[C@@H]3OC1CC(N)C(O)C(C)O1` (some centres not stated), the T/C reads like this: (endpoint: mean tumor weight, dose: 0.25 mg/kg/injection, schedule: Q01DX009 (ip), vehicle: saline) 38 % of control; (endpoint: mean tumor weight, dose: 0.5 mg/kg/injection, schedule: Q01DX009 (ip), vehicle: saline) 17 % of control; (endpoint: mean tumor weight, dose: 0.5 mg/kg/injection, schedule: Q07DX005 (ip), vehicle: saline) 85 % of control; under setting [1], 45 % of control and 55 % of control and 66 % of control; (endpoint: mean tumor weight, dose: 0.75 mg/kg/injection, schedule: Q07DX006 (ip), vehicle: saline) 46 % of control; (endpoint: mean tumor weight, dose: 1.0 mg/kg/injection, schedule: Q01DX009 (ip), vehicle: saline) 2 % of control. For the same compound, the T/C (endpoint: mean tumor weight, dose: 1.0 mg/kg/injection, schedule: Q07DX005 (ip), vehicle: saline) was 89 % of control; the T/C (endpoint: mean tumor weight, dose: 1.5 mg/kg/injection, schedule: Q07DX006 (ip), vehicle: saline) was 42 % of control; the T/C (endpoint: mean tumor weight, dose: 2.0 mg/kg/injection, schedule: Q07DX005 (ip), vehicle: saline) is 40 % of control; the T/C (endpoint: mean tumor weight, dose: 2.5 mg/kg/injection, schedule: Q07DX006 (ip), vehicle: saline) is 6 % of control; the T/C (endpoint: mean tumor weight, dose: 3.0 mg/kg/injection, schedule: Q07DX006 (ip), vehicle: saline) was 3 % of control; the T/C (endpoint: mean tumor weight, dose: 4.0 mg/kg/injection, schedule: Q07DX006 (ip), vehicle: saline) was 1 % of control. Besides, the T/C is, setting by setting: (endpoint: median tumor weight (est.), dose: 0.25 mg/kg/injection, schedule: Q07DX005 (ip), vehicle: saline) 208 % of control and 84 % of control; (endpoint: median tumor weight (est.), dose: 0.37 mg/kg/injection, schedule: Q07DX005 (ip), vehicle: water) 84 % of control; (endpoint: median tumor weight (est.), dose: 0.75 mg/kg/injection, schedule: Q07DX005 (ip), vehicle: saline) 62 % of control; (endpoint: median tumor weight (est.), dose: 0.75 mg/kg/injection, schedule: Q07DX005 (ip), vehicle: water) 47 % of control; (endpoint: median tumor weight (est.), dose: 1.25 mg/kg/injection, schedule: Q07DX005 (ip), vehicle: saline) 40 % of control; (endpoint: median tumor weight (est.), dose: 1.5 mg/kg/injection, schedule: Q07DX005 (ip), vehicle: saline) 85 % of control. Further, the T/C reads like this: (endpoint: median tumor weight (est.), dose: 1.5 mg/kg/injection, schedule: Q07DX005 (ip), vehicle: water) 81 % of control; (endpoint: median tumor weight (est.), dose: 1.8 mg/kg/injection, schedule: Q07DX005 (ip), vehicle: saline) 77 % of control; (endpoint: median tumor weight (est.), dose: 2.5 mg/kg/injection, schedule: Q07DX005 (ip), vehicle: saline) 14 % of control; (endpoint: median tumor weight (est.), dose: 2.7 mg/kg/injection, schedule: Q07DX005 (ip), vehicle: saline) 51 % of control; (endpoint: median tumor weight (est.), dose: 3.0 mg/kg/injection, schedule: Q07DX005 (ip), vehicle: saline) 29 % of control; (endpoint: median tumor weight (est.), dose: 4.4 mg/kg/injection, schedule: Q01DX001 (ip), vehicle: saline) 37 % of control. The T/C runs as follows: (endpoint: median tumor weight (est.), dose: 4.4 mg/kg/injection, schedule: Q07DX004 (ip), vehicle: saline) 11 % of control; (endpoint: median tumor weight (est.), dose: 6.0 mg/kg/injection, schedule: Q07DX005 (ip), vehicle: saline) 30 % of control; (endpoint: median tumor weight (est.), dose: 6.7 mg/kg/injection, schedule: Q01DX001 (ip), vehicle: saline) 28 % of control; (endpoint: median tumor weight (est.), dose: 6.7 mg/kg/injection, schedule: Q07DX004 (ip), vehicle: saline) 5 % of control; (endpoint: median tumor weight (est.), dose: 8.0 mg/kg/injection, schedule: Q07DX005 (ip), vehicle: water) 1 % of control; (endpoint: median tumor weight (est.), dose: 10.0 mg/kg/injection, schedule: Q01DX001 (ip), vehicle: saline) 15 % of control. The T/C runs as follows: (endpoint: median tumor weight (est.), dose: 15.0 mg/kg/injection, schedule: Q01DX001 (ip), vehicle: saline) 6 % of control; (endpoint: median tumor weight change, dose: 1.25 mg/kg/injection, schedule: Q01DX001 (ip), vehicle: water) 115 % of control; (endpoint: median tumor weight change, dose: 2.5 mg/kg/injection, schedule: Q01DX001 (ip), vehicle: water) 81 % of control; (endpoint: median tumor weight change, dose: 3.75 mg/kg/injection, schedule: Q01DX001 (ip), vehicle: saline) 96 % of control; (endpoint: median tumor weight change, dose: 4.4 mg/kg/injection, schedule: Q01DX001 (ip), vehicle: water) 27 % of control; (endpoint: median tumor weight change, dose: 5.0 mg/kg/injection, schedule: Q01DX001 (ip), vehicle: water) 18 % of control. For the same compound, the T/C (endpoint: median tumor weight change, dose: 6.7 mg/kg/injection, schedule: Q01DX001 (ip), vehicle: water) was -5 % of control; the T/C (endpoint: median tumor weight change, dose: 7.5 mg/kg/injection, schedule: Q01DX001 (ip), vehicle: saline) was 82 % of control; the T/C (endpoint: median tumor weight change, dose: 15.0 mg/kg/injection, schedule: Q01DX001 (ip), vehicle: water) is -49 % of control.
Take `Brc1c(NC2=NCCN2)ccc2nccnc12`: the T/C (endpoint: median tumor weight change, dose: 15.6 mg/kg/injection, schedule: Q01DX001 (ip), vehicle: saline) is 52 % of control; the T/C (endpoint: median tumor weight change, dose: 31.25 mg/kg/injection, schedule: Q01DX001 (ip), vehicle: saline) was 77 % of control; the T/C (endpoint: median tumor weight change, dose: 62.5 mg/kg/injection, schedule: Q01DX001 (ip), vehicle: saline) is 81 % of control; the T/C (endpoint: median tumor weight change, dose: 125.0 mg/kg/injection, schedule: Q01DX001 (ip), vehicle: saline) was 92 % of control; the T/C (endpoint: median tumor weight change, dose: 250.0 mg/kg/injection, schedule: Q01DX001 (ip), vehicle: saline) was 53 % of control.
Consider `CN1N=C(N)c2cn(C3OC(COP(=O)(O)O)C(O)C3O)c3ncnc1c23` (configuration not stated), for which the T/C is 46 % of control (endpoint: median tumor weight (est.), dose: 9.37 mg/kg/injection, schedule: Q07DX005 (ip), vehicle: other); 121 % of control (endpoint: median tumor weight (est.), dose: 12.5 mg/kg/injection, schedule: Q07DX005 (ip), vehicle: water); 52 % of control (endpoint: median tumor weight (est.), dose: 18.75 mg/kg/injection, schedule: Q07DX005 (ip), vehicle: other); 54 % of control (endpoint: median tumor weight (est.), dose: 25.0 mg/kg/injection, schedule: Q07DX005 (ip), vehicle: water); 25 % of control (endpoint: median tumor weight (est.), dose: 37.5 mg/kg/injection, schedule: Q07DX005 (ip), vehicle: other); 25 % of control (endpoint: median tumor weight (est.), dose: 50.0 mg/kg/injection, schedule: Q07DX005 (ip), vehicle: water). For the same compound, the T/C by setting is: (endpoint: median tumor weight (est.), dose: 75.0 mg/kg/injection, schedule: Q07DX005 (ip), vehicle: other) 16 % of control; (endpoint: median tumor weight (est.), dose: 100.0 mg/kg/injection, schedule: Q07DX005 (ip), vehicle: water) 7 % of control; (endpoint: median tumor weight (est.), dose: 150.0 mg/kg/injection, schedule: Q07DX005 (ip), vehicle: other) 5 % of control.
